Experimental data as given in EPA's ToxValDB 9.5 (doi:10.2903/j.efsa.2006.87r).
Converted amounts (≈) assume the structure as drawn.

Tests used:
Bird = conditions: for LD50: acute, oral, unspecified, mortality
Oncorhynchus mykiss = conditions: chronic/long-term; duration: 28 days; growth
Bibionidae = conditions: chronic/long-term; duration: 28 days
Lepomis macrochirus = conditions: acute; duration: 96 hours; mortality
Daphnia magna = conditions: chronic/long-term; duration: 21 days; reproduction
Apis mellifera = conditions: acute; duration: 48 hours; oral; unspecified; mortality
Canidae = conditions: chronic; duration: 1 years; oral; Dog Other
Oryctolagus sp. = conditions: reproduction developmental; mortality
Aphidius rhopalosiphi = conditions: not reported

Row | SMILES | LD50 (Bird) | NOEC (Oncorhynchus mykiss) | NOEC (Bibionidae) | LC50 (Lepomis macrochirus) | NOEC (Daphnia magna) | LD50 (Rattus norvegicus; acute, oral, mortality) | NOAEL (Rattus norvegicus; chronic, duration: 2 years, organ weight) | NOAEL (Rattus norvegicus; reproduction developmental, body weight) | NOEC (Bird; reproductive) | LC50 (Tagia sp.; acute, duration: 14 days, mortality) | NOEC (Tagia sp.; chronic/long-term, reproduction) | LD50 (Apis mellifera) | NOAEL (Canidae) | NOAEL (Oryctolagus sp.) | LEL (Aphidius rhopalosiphi; mortality) | LEL (Aphidius rhopalosiphi; reproduction) | LC50 (acute, oral, diet, mortality) | NOAEL (chronic/long-term)
1 | COC(=O)[C@@H](C)Oc1ccc(Oc2ncc(C(F)(F)F)cc2Cl)cc1 [Haloxyfop-P-methyl] | 1160 mg/kg-day | 0.0052 mg/L | 2.5 mg/L | 0.0884 µg/mL (≈ 0.235 µM) | 0.509 mg/L | – | – | – | – | – | – | – | – | – | – | – | – | –
2 | C[C@@H](Oc1ccc(Oc2ncc(C(F)(F)F)cc2Cl)cc1)C(=O)O [Haloxyfop-P] | 414 mg/kg | – | – | – | – | ≥ 300 mg/kg | 0.065 mg/kg-day | 0.065 mg/kg-day | 17.1 mg/kg-day | 830 mg/kg | 810 g/ha | > 100 µg/piece | 0.5 mg/kg-day | 7.5 mg/kg-day | 108 g/ha | 5.7 g/ha | > 1110 mg/kg-day | 1 mg/kg-day
